In ChEMBL document CHEMBL3392989 (Bioorg Med Chem Lett, 2015):
Activity calls are given as the source filed them. The calls are words filed in the database; no cut-off is given here.

Assays:
[1] = target: Amyloid-beta precursor protein (Homo sapiens) (UniProt P05067); test: Inhibition of Amyloid beta (1 to 42) (unknown origin) self aggregation at 50 uM pre-incubated for 24 hrs by Thioflavin T-based fluorometric assay
[2] = target: Beta-secretase 1 (Homo sapiens) (UniProt P56817); test: Inhibition of BACE1 (unknown origin) at 10 uM using ([Asn670, Lue671]-Amyloid beta/A4 precursor protein 770 fragment 667-676-(2,4dinitrophenyl) Lys-Arg-Arg amide trifluoroacetate salt substrate incubated for 2 hrs by FRET assay
Sequence of Beta-secretase 1 (Homo sapiens) (P56817 whole entry, the tested form may be a part): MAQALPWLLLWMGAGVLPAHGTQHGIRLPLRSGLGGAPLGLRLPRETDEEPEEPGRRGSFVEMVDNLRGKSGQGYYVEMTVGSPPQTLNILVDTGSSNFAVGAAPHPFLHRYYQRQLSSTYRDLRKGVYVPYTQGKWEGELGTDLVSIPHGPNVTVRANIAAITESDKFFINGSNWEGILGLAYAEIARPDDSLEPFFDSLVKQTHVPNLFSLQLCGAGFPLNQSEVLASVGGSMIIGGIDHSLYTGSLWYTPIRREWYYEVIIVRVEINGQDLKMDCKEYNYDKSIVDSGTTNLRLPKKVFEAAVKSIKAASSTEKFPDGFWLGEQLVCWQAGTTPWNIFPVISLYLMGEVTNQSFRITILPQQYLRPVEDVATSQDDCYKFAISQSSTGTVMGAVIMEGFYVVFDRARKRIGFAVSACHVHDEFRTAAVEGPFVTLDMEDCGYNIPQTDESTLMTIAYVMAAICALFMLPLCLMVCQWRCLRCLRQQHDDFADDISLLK

[3] = target: Amyloid-beta precursor protein (Homo sapiens) (UniProt P05067); test: Inhibition of Amyloid beta (1 to 42) (unknown origin) self aggregation at 5 uM pre-incubated for 24 hrs by Thioflavin T-based fluorometric assay
Cholinesterase = Cholinesterase (Equus caballus, UniProt P81908); test: Inhibition of horse serum BuChE pre-incubated for 20 mins before […] substrate addition by Ellman's assay
Sequence of Cholinesterase (P81908 whole entry): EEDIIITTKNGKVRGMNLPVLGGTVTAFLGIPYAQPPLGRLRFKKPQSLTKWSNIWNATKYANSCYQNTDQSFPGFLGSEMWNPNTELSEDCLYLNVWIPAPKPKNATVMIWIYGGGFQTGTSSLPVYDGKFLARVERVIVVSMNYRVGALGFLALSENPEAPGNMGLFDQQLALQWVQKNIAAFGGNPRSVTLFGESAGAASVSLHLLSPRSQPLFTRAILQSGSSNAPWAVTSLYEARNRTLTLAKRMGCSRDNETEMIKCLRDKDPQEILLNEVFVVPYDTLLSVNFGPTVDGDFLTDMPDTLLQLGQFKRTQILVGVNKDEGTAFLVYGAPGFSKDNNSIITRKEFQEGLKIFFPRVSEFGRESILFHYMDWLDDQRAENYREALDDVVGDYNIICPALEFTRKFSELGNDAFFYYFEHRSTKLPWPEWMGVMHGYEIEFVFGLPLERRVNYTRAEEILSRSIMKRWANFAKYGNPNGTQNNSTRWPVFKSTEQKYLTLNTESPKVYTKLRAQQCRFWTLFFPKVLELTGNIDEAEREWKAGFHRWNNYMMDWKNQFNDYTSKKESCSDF

Acetylcholinesterase = Acetylcholinesterase (Electrophorus electricus, UniProt O42275)
Sequence of Acetylcholinesterase (O42275 whole entry): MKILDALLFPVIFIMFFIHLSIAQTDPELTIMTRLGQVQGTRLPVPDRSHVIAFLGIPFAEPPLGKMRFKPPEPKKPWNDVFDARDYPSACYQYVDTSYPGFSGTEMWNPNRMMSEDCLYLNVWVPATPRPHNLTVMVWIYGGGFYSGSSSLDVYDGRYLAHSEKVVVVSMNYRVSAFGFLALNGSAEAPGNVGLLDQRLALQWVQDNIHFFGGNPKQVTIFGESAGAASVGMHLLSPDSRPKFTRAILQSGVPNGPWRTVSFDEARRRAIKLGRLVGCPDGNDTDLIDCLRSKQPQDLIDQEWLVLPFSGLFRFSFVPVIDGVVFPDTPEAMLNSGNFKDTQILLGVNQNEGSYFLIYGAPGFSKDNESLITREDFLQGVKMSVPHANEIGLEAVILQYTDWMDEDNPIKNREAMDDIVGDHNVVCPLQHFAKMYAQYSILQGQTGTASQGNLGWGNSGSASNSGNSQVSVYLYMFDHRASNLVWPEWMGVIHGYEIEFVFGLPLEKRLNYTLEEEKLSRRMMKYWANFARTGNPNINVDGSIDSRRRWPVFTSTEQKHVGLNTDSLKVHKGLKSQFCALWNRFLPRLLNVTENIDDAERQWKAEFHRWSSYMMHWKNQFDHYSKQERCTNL
Description: Inhibition of electric eel AChE pre-incubated for 20 mins before acetylcholine iodide substrate addition by Ellman's assay

HT-22 [4] = test: Cytotoxicity against mouse HT22 cells assessed as reduction in cell viability at 10 to 100 uM after 24 hrs by MTT assay; format: cell-based; details: ht-22, 24 h
HT-22 [5] = test: Cytoprotective activity in mouse HT22 cells assessed as reduction in glutamate-induced cytotoxicity at 0.3 to 10 uM pre-incubated for 30 mins before incubation with glutamate for 24 hrs by MTT assay; format: functional, cell-based
HT-22 [6] = test: Cytoprotective activity in mouse HT22 cells assessed as reduction in glutamate-induced cytotoxicity at 3 uM pre-incubated for 30 mins before incubation with glutamate for 24 hrs by MTT assay; format: functional, cell-based
HT-22 [7] = test: Cytotoxicity against mouse HT22 cells assessed as reduction in cell viability at 30 to 100 uM after 24 hrs by MTT assay; format: cell-based; details: ht-22, 24 h
HT-22 [8] = test: Cytotoxicity against mouse HT22 cells assessed as reduction in cell viability at 10 uM after 24 hrs by MTT assay; format: cell-based; details: ht-22, 24 h
[9] = Metal chelating activity assessed as copper chelation activity by measuring barhochromic shift at 40 uM using CuCl2 UV-vis spectroscopy; format: physicochemical
HT-22 [10] = test: Cytoprotective activity in mouse HT22 cells assessed as reduction in glutamate-induced cytotoxicity at 10 uM pre-incubated for 30 mins before incubation with glutamate for 24 hrs by MTT assay; format: functional, cell-based
HT-22 [11] = test: Cytotoxicity against mouse HT22 cells assessed as reduction in cell viability at 100 uM after 24 hrs by MTT assay; format: cell-based; details: ht-22, 24 h

Sequence of Amyloid-beta precursor protein (Homo sapiens) (P05067 whole entry, the tested form may be a part): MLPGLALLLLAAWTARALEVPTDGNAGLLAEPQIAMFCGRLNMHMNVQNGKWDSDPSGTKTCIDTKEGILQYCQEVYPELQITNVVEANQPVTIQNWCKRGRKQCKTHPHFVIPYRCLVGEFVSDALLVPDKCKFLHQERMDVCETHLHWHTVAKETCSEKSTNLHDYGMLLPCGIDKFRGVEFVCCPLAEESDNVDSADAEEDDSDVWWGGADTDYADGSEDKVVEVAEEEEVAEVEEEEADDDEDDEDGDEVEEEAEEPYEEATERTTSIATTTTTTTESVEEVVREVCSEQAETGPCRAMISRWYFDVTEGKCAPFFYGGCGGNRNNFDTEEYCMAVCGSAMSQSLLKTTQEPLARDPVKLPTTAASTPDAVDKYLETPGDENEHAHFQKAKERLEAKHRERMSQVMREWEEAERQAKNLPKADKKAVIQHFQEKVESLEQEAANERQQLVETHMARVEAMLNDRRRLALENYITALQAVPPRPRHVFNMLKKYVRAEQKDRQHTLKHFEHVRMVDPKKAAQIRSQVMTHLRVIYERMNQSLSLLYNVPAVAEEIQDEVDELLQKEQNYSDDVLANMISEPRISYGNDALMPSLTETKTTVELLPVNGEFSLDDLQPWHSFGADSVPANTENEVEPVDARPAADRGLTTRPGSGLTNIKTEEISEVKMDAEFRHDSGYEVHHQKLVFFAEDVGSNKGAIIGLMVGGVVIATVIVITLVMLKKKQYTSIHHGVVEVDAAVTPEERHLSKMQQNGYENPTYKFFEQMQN

SMILES	inhibition [1] [%]	inhibition [2] [%]	inhibition [3] [%]	IC50 (Cholinesterase) [µM]	IC50 (Acetylcholinesterase) [µM]	Activity (HT-22 [4])	Activity (HT-22 [5])	Activity (HT-22 [6])	Activity (HT-22 [7])	Activity (HT-22 [8])	Activity [9]	Activity (HT-22 [10])	Activity (HT-22 [11])
O=C(/C=C/c1ccc(O)c(O)c1)NCC(O)CNc1c2c(nc3ccccc13)CCCC2 (stereo not given)	49.8	10.5	12.8	1.01	0.7	Non-toxic	inactive						
O=C(CCCCC1CCSS1)NCC(O)CNc1c2c(nc3ccccc13)CCCC2 (stereo not given)		24.8		1.18	0.1			Active	Toxic				
O=C(CCCCC1CCSS1)NCC(O)CNc1c2c(nc3cc(Cl)ccc13)CCCC2 (stereo not given)		46.8		1.03	0.04			Active	Toxic	Toxic			
O=C(/C=C/c1ccc(O)c(O)c1)NCC(O)CNc1c2c(nc3cc(Cl)ccc13)CCCC2 (stereo not given)	53.2	13.1	9.2	0.36	0.15						Active	Active	Toxic
COc1cc(/C=C/C(=O)NCC(O)CNc2c3c(nc4ccccc24)CCCC3)ccc1O (stereo not given)	46.3	15	8.4	0.31	0.03	Non-toxic	inactive						
COc1cc(/C=C/C(=O)NCC(O)CNc2c3c(nc4cc(Cl)ccc24)CCCC3)ccc1O (stereo not given)	48.9	2.57	13.5	0.71	0.02		inactive						Toxic
